Assay results: paper PMC7463460, “Structure and Antiparasitic Activity Relationship of Alkylphosphocholine Analogues against Leishmania donovani” (Microorganisms, 2020)
Where “and” joins values, the source holds several entries; their conditions need not be identical. Equal values may be shown once. Read-outs that look alike come from different tables or passages of the source.

How the values were obtained:
[1] = Cytotoxicity against uninfected macrophages (alamar blue); format: cell-based, BALB/c mice; details: BALB/c, mouse, read-out: Macrophage mean IC50 (CC50) (converted)
Protocol: (§1) The effect of drug treatment on parasite survival was determined by calculating the mean suppression in the light emitted from the drug-treated experimental sample compared to the mean control value and used to calculate the IC50 using Grafit® software (version 5.0, Erithacus Software, East Grinstead, West Sussex, UK). The effect of drug alone on the viability of uninfected macrophages was determined using the same experimental protocol above, but cell viability was determined using an alamar blue colorimetric assay. At the end of the incubation period, cells’ 10 µL resazurin solution (0.02% w/v) was added to control and drug treated cells and the absorbance of samples was read at 575 and 595 nm. The effect of drug treatment on cell survival, which correlates with the magnitude of dye reduction, was expressed as percentage viability (or alamar blue reduction) and determined using the formula provided in the manufacturer’s protocol % alamar blue reduction=(εoxλ)(Aλ1)−(εoxλ1)(Aλ2)/(εredλ1)(A^′λ2)−(εredλ2)(A^′λ1)x100
In the formula, ελ1 and ελ2 are constants representing the molar extinction coefficient of alamar blue at 575 and 595 nm, respectively, in the oxidized (εox) and reduced (εred) forms. Aλ1, Aλ2 and A’λ1, A’λ2 represent absorbance of test and negative control wells at 575 and 595 nm, respectively. The values of % alamar blue reduction (or % viability) were corrected for background values of negative controls containing medium without cells. Percent viability values were used to calculate the IC50 using Grafit® software (version 5.0).

[2] = system: L. donovani 275/18 Milt-Sb-resistant intracellular amastigotes; assay: Intracellular amastigote assay, Milt-resistant 275/18; format: cell-based, Leishmania donovani; details: for IC50: Leishmania donovani, read-out: Mean IC50 Value Amastigotes; for Selectivity Index (SI50): macrophage CC50 / amastigote IC50
Text: L. donovani cloned strains with different Sb susceptibility backgrounds were derived from isolates obtained from VL patients at the B.P. Koirala Institute of Health Sciences, Dharan, Nepal: MHOM/NP/02/BPK282/0cl4 (Sb sensitive, Sb-S). MHOM/NP/02/BPK087/0cl11 (Sb intermediate, Sb-I) and MHOM/NP/02/BPK275/0cl18 (Sb resistance, Sb-R [13]). In addition, Milt-resistant parasites raised against these three Sb sensitivity backgrounds and the Sb-sensitive strain (MHOM/ET/67:LV82) was also used in studies. Luciferase expressing promastigotes for the LV82 and Nepalese strains were prepared using previously published methods and the integrative construct (a gift from Dr D.F. Smith), designated pGL1313, contained pSSU-int fragments to facilitate integration into the ribosomal RNA locus of Leishmania.
In the macrophage studies, the method described in previous studies was used as follows. Briefly, bone-marrow-derived BALB/c macrophages (1–2 × 10^5) in 100 µL complete RPMI 1640 medium were added to the wells of a 96 well plate and left to adhere for 24 h at 37 °C, 5% CO₂/95% air. The medium was removed and 100 µL of the appropriate L. donovani luciferase-expressing promastigotes line (parasite: host cell ratio 1:10, 1:20 or 1:40) was added to each well, the ratio used reflected the infectivity of the strain and ensured that control data gave a bioluminescent signal within the same range. […] The variability in infectivity complicates strain to strain comparisons, but we decided to focus on achieving good infection levels in controls so that the effect of drug treatment could be determined. It is possible that intracellular macrophage parasites could have been at different developmental stages at 24 h post-infection. […] Therefore, we assumed that the effect of compounds on the amastigote stage rather than the promastigotes stage was determined in in vitro macrophage studies.
The plate was incubated for a further 24 h, the medium removed, and each well washed with PBS to eliminate non-internalized parasites, which were monitored microscopically. When the wells were devoid of external parasites, 100 µL of the medium alone (control) or appropriate APC compound was then added (0.01–0.197 µg/mL, n = 3/treatment). […]. All plates were incubated for 72 h at 37 °C, 5% CO₂/95% air. Wells with macrophage and with no drug or promastigotes added were used in control experiments.
(§2) Luciferin solution (1 µg/mL in 20 µL medium without FCS) was added to the appropriate wells of the 96-well plate at the end of the experiment and the amount of light emitted/well was measured using a luminometer (Biotek Synergy HT, relative light units) using a wavelength/bandwidth of 440/40 nm, or IVIS® imaging (Spectrum Living Image system®, total flux, photons/sec).
as §1, with “reduction=(εoxλ)(Aλ1)−(εoxλ1)(Aλ2)/(εredλ1)(A^′λ2)−(εredλ2)(A^′λ1)x100 […]” for “reduction=(εoxλ)(Aλ1)−(εoxλ1)(Aλ2)/(εredλ1)(A^′λ2)−(εredλ2)(A^′λ1)x100”

[3] = system: L. donovani LV82 intracellular amastigotes; assay: Intracellular amastigote assay in bone-marrow-derived macrophages, strain LV82; format: cell-based, Leishmania donovani; details: for IC50 / IC90: Leishmania donovani, Macrophage; for IC50: in Mus musculus, 72 h; for IC90: LV82; for Selectivity Index (SI50): macrophage CC50 / LV82 intracellular amastigote IC50
Protocol: In the macrophage studies, the method described in previous studies was used as follows. […] It is possible that intracellular macrophage parasites could have been at different developmental stages at 24 h post-infection. […] Therefore, we assumed that the effect of compounds on the amastigote stage rather than the promastigotes stage was determined in in vitro macrophage studies.
The plate was incubated for a further 24 h, the medium removed, and each well washed with PBS to eliminate non-internalized parasites, which were monitored microscopically. […] Wells with macrophage and with no drug or promastigotes added were used in control experiments.
as §2
as §1, with “At the end of the incubation period, cells’ 10 µL resazurin solution (0.02% w/v) was added to control and drug treated cells and the absorbance of samples was read at 575 and 595 nm.” left out

[4] = uninfected bone-marrow-derived macrophages
[5] = strain 275/18, Milt-Sb-resistant
[6] = LV82, intracellular in BALB/c macrophages, 3 days, 37 °C

| Compound | IC50 at 3 days [1, 4] | IC50 [2] | Selectivity Index (SI50) [2, 5] | Amastigote mean IC50 [3, 6] | IC50 [3, 6] | IC90 [3] | fold more active than Milt (APC16) ([3]; intracellular amastigotes) | Selectivity Index (SI50) [3] | Cross-Resistance Index (CRI50) Amast [2, 5] | IC50 at 3 days [1] |
| --- | --- | --- | --- | --- | --- | --- | --- | --- | --- | --- |
| CCCCCCCCCCCCOP(=O)([O-])OCC[N+](C)(C)C [APC12, dodecylphosphocholine] | 35.4 µg/mL and 101 µM | 4.45 µg/mL and 12.7 µM | 7.95 | 0.01 ± 0.00 µg/mL | 0.009 µg/mL and 26 nM | 0.081 ± 0.01 µg/mL | 4 fold | 3870.77 | – | – |
| CCCCCCCCCCCCCCOP(=O)([O-])OCC[N+](C)(C)C [APC14, tetradecylphosphocholine] | 40.9 µg/mL and 108 µM | 34.9 µg/mL and 91.8 µM | 1.17 | – | 0.03 µg/mL and 66 nM | – | – | 1632.58 | > 20.144 | – |
| CCCCCCCCCCCCCCCCOP(=O)([O-])OCC[N+](C)(C)C [APC16, hexadecylphosphocholine, reference compound] | – | > 61.4 µg/mL and > 151 µM | – | – | 0.1 µg/mL and 250 nM | 0.9 ± 0.016 µg/mL | – | – | – | 5.08 µg/mL and 12.5 µM |
